Results from paper PMC10101059, “Rational Design of Stapled Antimicrobial Peptides to Enhance Stability and In Vivo Potency against Polymicrobial Sepsis” (Microbiology Spectrum, 2023).
Values after ≈ are worked out from the molar mass of the structure shown. Like-named read-outs stand apart in the source and are kept apart here.

Experiments:
MDR A. baumannii 1033 = assay: Checkerboard microdilution assay (FICI); format: cell-based, Acinetobacter baumannii
Protocol: (§1) The FICI was measured using a standard checkerboard microdilution assay ([57]). Two-fold dilutions of antibiotics were made across the x axis, and two-fold peptide dilutions were made across the y axis. Next, bacteria were added at 5 × 10^5 CFU/well (A. baumannii), followed by incubation at 37 ± 2°C for 16 to 20 h. FIC indices were calculated according to the following equations: FICI = FIC1 + FIC2; FIC1 = (MIC12 combined)/MIC1; FIC2 = (MIC12 combined)/MIC2. The combined efficacy was estimated as follows: FICI ≤ 0.5, synergistic; 0.5 to 1, additive; 1 to 2, indifferent; ≥2, antagonistic.

P. aeruginosae = assay: microbe, parasite or virus in culture; format: cell-based, Pseudomonas aeruginosa
A. baumannii biofilm = assay: Biofilm inhibition assay; format: cell-based, Acinetobacter baumannii; conditions: 0.5× to 4× MIC
Protocol: (i) Biofilm inhibition assay. Fifty μL of 2 × 10^6 CFU/mL A. baumannii bacterial suspension was added to a 96-well plate. Then, 50 μL of peptide/drug (various concentrations) was added, and the plate was incubated for 24 h. The residual solution was removed, and wells were washed, followed by treatment with 100% methanol for 15 min at room temperature. The methanol was then removed, and the wells were allowed to dry at room temperature. Next, the wells were incubated with 100 μL of 0.02% crystal violet for 30 min. After the incubation, the wells were washed with distilled water and dried for an appropriate length of time. Finally, 100 μL of 33% acetic acid was added to the wells for 1 h, followed by reading the absorbance at 595 nm ([55]).

Pseudomonas aeruginosa = assay: microbe, parasite or virus in culture; format: cell-based; conditions: for MBC: read-out: MBC; for MIC: read-out: MIC
Protocol: (§2) The antimicrobial assay was performed according to a modified National Committee for Clinical Laboratory Standards (NCCLS) protocol ([41], [42]). Briefly, 5 × 10^5 CFU/mL bacterial cells were treated with various peptide concentrations and incubated at 37 ± 2°C for 16 to 20 h. The lowest concentration with clear wells was recorded as the MIC for each test molecule. The clear wells were further plated in Mueller-Hinton agar (MHA) plates, followed by incubation overnight at 37 ± 2°C. After plating, the lowest concentration at which no growth was observed was recorded as the MBC. For the serum sensitivity assay, the antimicrobial activity of the peptides was tested in medium containing 50% human serum ([43], [44]).

Escherichia coli = assay: microbe, parasite or virus in culture; format: cell-based; conditions: Escherichia coli
Protocol: as §2

[1] = tested on: NDM-1 Klebsiella pneumoniae; assay: microbe, parasite or virus in culture; format: cell-based
Protocol: as §2

MDR A. baumannii 14B001 = assay: microbe, parasite or virus in culture; format: cell-based, Acinetobacter baumannii
Protocol: as §1

MDR A. baumannii 1702 = assay: microbe, parasite or virus in culture; format: cell-based, Acinetobacter baumannii
Protocol: as §1

MDR A. baumannii 2982 = assay: microbe, parasite or virus in culture; format: cell-based, Acinetobacter baumannii
Protocol: as §1

MDR A. baumannii 921 = assay: microbe, parasite or virus in culture; format: cell-based, Acinetobacter baumannii
Protocol: as §1

MDR A. baumannii 2962 = assay: microbe, parasite or virus in culture; format: cell-based, Acinetobacter baumannii
Protocol: as §1

MDR A. baumannii 1607 = assay: microbe, parasite or virus in culture; format: cell-based, Acinetobacter baumannii
Protocol: as §1

MDR A. baumannii 1019 = assay: microbe, parasite or virus in culture; format: cell-based, Acinetobacter baumannii
Protocol: as §1

NDM1 K. pneumoniae = assay: microbe, parasite or virus in culture; format: cell-based, Klebsiella pneumoniae
[2] = tested on: CLP-induced polymicrobial sepsis in C57BL/6 female mice; assay: CLP-induced polymicrobial sepsis model; format: in vivo
Protocol: (i) CLP surgery. Cecal ligation and puncture surgery was performed to induce polymicrobial sepsis according to a previously described method ([37]). Female C57BL/6 mice at 6 to 8 weeks of age (weight = 18 to 22 g) were anesthetized by intraperitoneal administration of Zoletil (50 mg/kg). Then, a 1-cm incision was made at the abdomen to expose the cecum. The CLP procedure was performed with a 23-G needle. […] A sham group was subjected to abdomen incision without CLP and treated with saline by intraperitoneal injection. After the treatments, percent survival was used as a measure of test-candidate efficacy ([37]).
(ii) Estimation of bacterial load, cytokine expression, and toxicity profile after CLP and treatment. […] Blood samples were taken in collection tubes. Peritoneal fluid was collected in a sterilized 1.5-mL centrifuge tube. Organs, including the liver, lung, spleen, and kidney, were harvested, weighed, and placed in 1-mL sterile PBS for homogenization with a tissue lyzer (Tissuelyzer II, Qiagen, Dusseldorf, Germany). The homogenates, blood, and peritoneal fluid were diluted serially and plated on Mueller-Hinton broth agar plates. The plates were incubated at 37°C overnight. Each tissue was evaluated by measuring CFU/g ([37]).
To evaluate kidney and liver function, blood samples (n = 5 per group) were tested for ALT (GPT), AST (GOT), CRE, and BUN using a dry-chemistry analyzer as described above. Mouse serum was extracted to assess (n = 5 per group) expression of cytokines (Thermo Fisher Scientific, Waltham, MA) as a measure of inflammatory response ([37]).

[3] = Acinetobacter baumannii, read-out: Single drug treatment MIC
[4] = MIC of each agent in combination, TP4-3 and M
[5] = Pseudomonas aeruginosa, MHB medium
[6] = HS, 50% human serum containing MHB medium
[7] = Klebsiella pneumoniae, MHB medium

C[C@@H](O)[C@H]1C(=O)N2C(C(=O)O)=C(S[C@@H]3CN[C@H](C(=O)N(C)C)C3)[C@H](C)[C@H]12 [Meropenem]
MIC (MDR A. baumannii 1033; [3]): 200 µM
TP4-3 and meropenem combined MIC (MDR A. baumannii 1033; [4]): 50 µM
TP4-3 and meropenem combined MIC (P. aeruginosae; [4]): 0.78 µM
MIC (P. aeruginosae; Pseudomonas aeruginosa, read-out: Single drug treatment MIC): 0.39 µM (≈ 0.15 µg/mL)
inhibition of biofilm (biomass) formation (A. baumannii biofilm): substantial inhibition of biomass formation
MBC (Pseudomonas aeruginosa; Pseudomonas aeruginosa, HS, 50% human serum containing MHB medium): 3.13 µM (≈ 1.2 µg/mL)
MBC (Pseudomonas aeruginosa; [5]): 6.25 µM (≈ 2.4 µg/mL)
MIC (Pseudomonas aeruginosa; [5]): 3.13 µM (≈ 1.2 µg/mL)
MIC (Pseudomonas aeruginosa): 1.56 µM (≈ 0.598 µg/mL)
MBC (Escherichia coli; [6]): 0.78 µM (≈ 0.299 µg/mL)
MIC (Escherichia coli; [6]): 0.78 µM (≈ 0.299 µg/mL)
MBC (Escherichia coli; MHB medium): 0.39 µM (≈ 0.15 µg/mL)
MIC (Escherichia coli; MHB medium): 0.39 µM (≈ 0.15 µg/mL)
MBC [1, 6]: >25 µM
MIC [1, 6]: >25 µM
MBC [1, 7]: > 25 µM
MIC [1, 7]: > 25 µM
MIC (MDR A. baumannii 14B001; [3]): 800 µM
TP4-3 and meropenem combined MIC (MDR A. baumannii 14B001; [4]): 400 µM
MIC (MDR A. baumannii 1702; [3]): 25 to 50 µM
TP4-3 and meropenem combined MIC (MDR A. baumannii 1702; [4]): 12.5 µM
MIC (MDR A. baumannii 2982; [3]): 400 µM
TP4-3 and meropenem combined MIC (MDR A. baumannii 2982; [4]): 200 µM
MIC (MDR A. baumannii 921; [3]): 400 µM
TP4-3 and meropenem combined MIC (MDR A. baumannii 921; [4]): 100 µM
MIC (MDR A. baumannii 2962; [3]): 100 µM
TP4-3 and meropenem combined MIC (MDR A. baumannii 2962; [4]): 25 µM
MIC (MDR A. baumannii 1607; [3]): 100 µM
TP4-3 and meropenem combined MIC (MDR A. baumannii 1607; [4]): 12.5 µM
MIC (MDR A. baumannii 1019; [3]): 50 µM
TP4-3 and meropenem combined MIC (MDR A. baumannii 1019; [4]): 6.25 µM
MIC (NDM1 K. pneumoniae; Klebsiella pneumoniae, read-out: Single drug treatment MIC): 400 µM (≈ 153 µg/mL)
TP4-3 and meropenem combined MIC (NDM1 K. pneumoniae; [4]): 200 µM
kidney (BUN, CRE) and liver function (GOT, GPT) ([2]; 24 h after CLP): poor liver function profiles
survival ([2]; 7 days post-operation, i.p. 30 min after CLP, TP4-3 9 mg/kg, meropenem 10 mg/kg, combination 9 mg/kg TP4-3 and 5 mg/kg meropenem, CLP + saline 12.5%): 37.5%
